The source made the active and inactive calls. No cut-off for these calls is given here.
Key:
Caspase-1 (Homo sapiens) [1] = target: T1, Caspase-1 (Homo sapiens) (UniProt P29466); assay: Inhibition of caspase 1 by Z-Asp-CH2DCB released from compound using […] substrate after 2 mins in presence of human neutrophil elastase
T1 sequence (whole entry): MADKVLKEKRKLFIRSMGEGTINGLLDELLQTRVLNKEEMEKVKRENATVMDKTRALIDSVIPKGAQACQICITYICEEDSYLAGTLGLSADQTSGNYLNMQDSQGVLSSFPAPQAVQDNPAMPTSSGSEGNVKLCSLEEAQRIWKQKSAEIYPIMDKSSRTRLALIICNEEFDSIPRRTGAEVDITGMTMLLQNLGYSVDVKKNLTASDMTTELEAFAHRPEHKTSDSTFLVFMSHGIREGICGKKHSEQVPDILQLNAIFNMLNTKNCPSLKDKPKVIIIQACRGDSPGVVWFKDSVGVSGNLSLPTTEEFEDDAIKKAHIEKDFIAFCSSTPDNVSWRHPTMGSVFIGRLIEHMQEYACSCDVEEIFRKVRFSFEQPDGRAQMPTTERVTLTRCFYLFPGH

[2] = target: T2, Myeloblastin (Homo sapiens) (UniProt P24158); assay: Inhibition of proteinase 3 after 30 mins
T2 sequence (whole entry): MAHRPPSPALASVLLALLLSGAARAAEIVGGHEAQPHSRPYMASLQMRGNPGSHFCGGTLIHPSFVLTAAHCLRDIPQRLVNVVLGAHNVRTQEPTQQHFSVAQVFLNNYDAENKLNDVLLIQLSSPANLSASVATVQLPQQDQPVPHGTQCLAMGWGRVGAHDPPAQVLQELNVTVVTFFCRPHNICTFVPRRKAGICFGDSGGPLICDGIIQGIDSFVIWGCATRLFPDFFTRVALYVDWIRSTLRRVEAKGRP

Caspase-1 (Homo sapiens) [3] = target: T1, Caspase-1 (Homo sapiens); assay: Inhibition of caspase 1 using […] substrate
[4] = target: T3, Neutrophil elastase (Homo sapiens) (UniProt P08246); assay: Inhibition of human neutrophil elastase assessed as remaining activity using MeOSuc-AAPV-pNA substrate at 10.5 uM; details: TDE = time-dependent effect
T3 sequence (whole entry): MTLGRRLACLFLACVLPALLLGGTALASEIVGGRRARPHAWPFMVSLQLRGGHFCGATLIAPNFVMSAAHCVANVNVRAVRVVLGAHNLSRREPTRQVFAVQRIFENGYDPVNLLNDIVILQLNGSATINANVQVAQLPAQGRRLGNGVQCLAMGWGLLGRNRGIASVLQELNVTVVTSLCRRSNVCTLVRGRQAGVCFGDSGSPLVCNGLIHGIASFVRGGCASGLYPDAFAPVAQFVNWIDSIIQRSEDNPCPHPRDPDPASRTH

CCC[C@H]1C(=O)N(COC(=O)C[C@H](NC(=O)OCc2ccccc2)C(=O)COC(=O)c2c(Cl)cccc2Cl)S(=O)(=O)N1C
inhibition (Caspase-1 (Homo sapiens) [1]): Active | inhibition [2]: inactive | inhibition (Caspase-1 (Homo sapiens) [3]): inactive | inhibition [4]: tde

From ChEMBL document CHEMBL1770148, “Dual function inhibitors of relevance to chronic obstructive pulmonary disease” (Bioorg Med Chem Lett, 2011)
